Reference: ChEMBL document CHEMBL5150066, “Synthesis of estrone selenocyanate Compounds, anti-tumor activity evaluation and Structure-activity relationship analysis” (Bioorg Med Chem, 2022)

Tests used:
SK-OV-3 = experiment: Antiproliferative activity against human SK-OV-3 cells assessed as inhibition of cell growth incubated for 72 hrs by MTT assay; format: functional, cell-based; conditions: SK-OV-3, 72 h
HeLa [1] = experiment: Antiproliferative activity against human HeLa cells assessed as inhibition of cell growth incubated for 72 hrs by MTT assay; format: functional, cell-based
T47D = experiment: Antiproliferative activity against human T47D cells assessed as inhibition of cell growth incubated for 72 hrs by MTT assay; format: functional, cell-based
MCF7 = experiment: Antiproliferative activity against human MCF7 cells assessed as inhibition of cell growth incubated for 72 hrs by MTT assay; format: functional, cell-based; conditions: MCF7, 72 h
HeLa [2] = experiment: Antitumor activity against human HeLa cells xenografted in wildtype zebrafish AB yolk sac assessed as tumor fluorescence area at 15 uM measured immediately by fluorescence based assay; format: functional
HeLa [3] = experiment: Antitumor activity against human HeLa cells xenografted in wildtype zebrafish AB yolk sac assessed as tumor fluorescence intensity at 15 uM measured 48 hrs post injection by fluorescence based assay; format: functional
[4] = Cytotoxicity against HEK293T cells assessed as inhibition of cell growth incubated for 72 hrs by MTT assay; format: toxicity, cell-based, HEK-293T; conditions: human
[5] = Selectivity index, ratio of IC50 for cytotoxicity against HEK293T cells to IC50 for antiproliferative activity against human HeLa cells; format: toxicity, cell-based; conditions: HEK293T cells versus HeLa cells, read-out: Ratio IC50
HepG2 = experiment: Antiproliferative activity against human HepG2 cells assessed as inhibition of cell growth incubated for 72 hrs by MTT assay; format: functional, cell-based; conditions: HepG2, 72 h
HeLa [6] = experiment: Antitumor activity against human HeLa cells xenografted in wildtype zebrafish AB yolk sac assessed as tumor fluorescence intensity at 15 uM measured immediately by fluorescence based assay; format: functional
HeLa [7] = experiment: Antitumor activity against human HeLa cells xenografted in wildtype zebrafish AB yolk sac assessed as tumor fluorescence area at 15 uM measured 48 hrs post injection by fluorescence based assay; format: functional

C[C@]12CC[C@@H]3c4ccc(OCCCCC[Se]C#N)cc4CC[C@H]3[C@@H]1CCC2=O
IC50 (SK-OV-3): 31 µM | IC50 (HeLa [1]): 9.5 µM | IC50 (T47D): 68.2 µM | IC50 (MCF7): 38.3 µM | Activity (HeLa [2]): 79354.17 pixel | Flu intensity (HeLa [3]): 5328.6 | IC50 at 72 h [4]: 77.2 µM | selectivity ratio [5]: 8.1 | IC50 (HepG2): > 100 µM | Flu intensity (HeLa [6]): 43169.53 | Activity (HeLa [7]): 12391.83 pixel
